Target: human APJ receptor (Homo sapiens (Human), UniProt P35414)
Assay: [35S]GTPγS binding assay on membranes from CHO cells stably expressing human APJ receptor
Format: biochemical
Details: membranes of CHO cells stably expressing human APJ receptor, read-out: Activity hAPJ SPA EC50 IP
In short: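 [35S]GTPγS binding measured on membranes from CHO cells stably expressing FLAG-tagged human APJ, with GDP, MgCl2 and NaCl levels optimized beforehand. Incubation 90 min at RT, imager read-out; EC50 from non-linear regression, averaged over several independent experiments.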

human APJ receptor, sequence (P35414 whole entry): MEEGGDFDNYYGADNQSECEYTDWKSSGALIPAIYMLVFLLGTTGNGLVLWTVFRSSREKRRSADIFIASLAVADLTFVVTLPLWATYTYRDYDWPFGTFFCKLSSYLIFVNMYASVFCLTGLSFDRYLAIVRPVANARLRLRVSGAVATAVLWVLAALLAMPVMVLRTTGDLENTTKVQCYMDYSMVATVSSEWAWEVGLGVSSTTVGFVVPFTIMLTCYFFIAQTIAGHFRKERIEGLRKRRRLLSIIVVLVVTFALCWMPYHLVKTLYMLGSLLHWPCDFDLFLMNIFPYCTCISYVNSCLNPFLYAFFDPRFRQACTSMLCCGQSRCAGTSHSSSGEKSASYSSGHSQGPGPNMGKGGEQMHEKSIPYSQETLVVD

SMILES | EC50
COc1cccc(-c2nnc(NS(=O)(=O)[C@@H](C)[C@H](C)c3ncc(Cl)cn3)n2[C@@H](C)c2ncc(C)o2)n1 (single isomer, unassigned) [Example 258.0, (2S,3R)-3-(5-chloro-2-pyrimidinyl)-N-(5-(6-methoxy-2-pyridinyl)-4-((1S)-1-(5-methyl-1,3-oxazol-2-yl)ethyl)-4H-1,2,4-triazol-3-yl)-2-butanesulfonamide or (2S,3R)-3-(5-chloro-2-pyrimidinyl)-N-(5-(6-methoxy-2-pyridinyl)-4-((1R)-1-(5-methyl-1,3-oxazol-2-yl)ethyl)-4H-1,2,4-triazol-3-yl)-2-butanesulfonamide] | 0.88 nM
COc1cccc(-c2nnc(NS(=O)(=O)[C@@H](C)[C@@H](OC(C)C)c3ncc(C)cn3)n2[C@@H](C)c2noc(C)n2)n1 (single isomer, unassigned) [Example 259.0, (1S,2S)-N-(5-(6-methoxy-2-pyridinyl)-4-((1R)-1-(5-methyl-1,2,4-oxadiazol-3-yl)ethyl)-4H-1,2,4-triazol-3-yl)-1-(5-methyl-2-pyrimidinyl)-1-(2-propanyloxy)-2-propanesulfonamide or (1S,2S)-N-(5-(6-methoxy-2-pyridinyl)-4-((1S)-1-(5-methyl-1,2,4-oxadiazol-3-yl)ethyl)-4H-1,2,4-triazol-3-yl)-1-(5-methyl-2-pyrimidinyl)-1-(2-propanyloxy)-2-propanesulfonamide] | 8.7 nM
COc1cccc(-c2nnc(NS(=O)(=O)[C@@H](C)[C@H](OC)c3ncc(Cl)cn3)n2[C@@H](C)c2ccon2)n1 (single isomer, unassigned) [Example 264.0, (1R,2S)-1-(5-chloro-2-pyrimidinyl)-1-methoxy-N-(5-(6-methoxy-2-pyridinyl)-4-((1R)-1-(1,2-oxazol-3-yl)ethyl)-4H-1,2,4-triazol-3-yl)-2-propanesulfonamide or (1R,2S)-1-(5-chloro-2-pyrimidinyl)-1-methoxy-N-(5-(6-methoxy-2-pyridinyl)-4-((1S)-1-(1,2-oxazol-3-yl)ethyl)-4H-1,2,4-triazol-3-yl)-2-propanesulfonamide] | 2.9 nM
COc1cccc(-c2nnc(NS(=O)(=O)[C@@H](C)[C@H](OC)c3ncc(Cl)cn3)n2[C@@H](C)c2ccon2)n1 (single isomer, unassigned) [Example 265.0, (1R,2S)-1-(5-chloro-2-pyrimidinyl)-1-methoxy-N-(5-(6-methoxy-2-pyridinyl)-4-((1R)-1-(1,2-oxazol-3-yl)ethyl)-4H-1,2,4-triazol-3-yl)-2-propanesulfonamide or (1R,2S)-1-(5-chloro-2-pyrimidinyl)-1-methoxy-N-(5-(6-methoxy-2-pyridinyl)-4-((1S)-1-(1,2-oxazol-3-yl)ethyl)-4H-1,2,4-triazol-3-yl)-2-propanesulfonamide] | 0.92 nM
COc1cccc(-c2nnc(NS(=O)(=O)[C@@H](C)[C@@H](OC(C)C)c3ncc(C)cn3)n2[C@@H](C)c2ccon2)n1 (single isomer, unassigned) [Example 269.0, (1S,2S)-1-isopropoxy-N-(4-((R)-1-(isoxazol-3-yl)ethyl)-5-(6-methoxypyridin-2-yl)-4H-1,2,4-triazol-3-yl)-1-(5-methylpyrimidin-2-yl)propane-2-sulfonamide or (1S,2S)-1-isopropoxy-N-(4-((S)-1-(isoxazol-3-yl)ethyl)-5-(6-methoxypyridin-2-yl)-4H-1,2,4-triazol-3-yl)-1-(5-methylpyrimidin-2-yl)propane-2-sulfonamide] | 17 nM
COc1cccc(-c2nnc(NS(=O)(=O)[C@@H](C)[C@@H](OC(C)C)c3ncc(C)cn3)n2[C@@H](C)c2ccon2)n1 (single isomer, unassigned) [Example 270.0, (1S,2S)-1-isopropoxy-N-(4-((R)-1-(isoxazol-3-yl)ethyl)-5-(6-methoxypyridin-2-yl)-4H-1,2,4-triazol-3-yl)-1-(5-methylpyrimidin-2-yl)propane-2-sulfonamide or (1S,2S)-1-isopropoxy-N-(4-((S)-1-(isoxazol-3-yl)ethyl)-5-(6-methoxypyridin-2-yl)-4H-1,2,4-triazol-3-yl)-1-(5-methylpyrimidin-2-yl)propane-2-sulfonamide] | 5.1 nM
